Data from US20240207285A1 (Melt Pharmaceuticals, Inc., priority 2022, published 2024).

Experiments:
[1] = test system: subjects undergoing cataract extraction with lens replacement (CELR); assay: Phase 2 subjects achieving procedural sedation (RSS 2 or 3 without rescue); type: in vivo, human; settings: Visit 2 (Day 1), Full Analysis Set
Description: A Phase 2 efficacy and safety study of the MELT-300 formulation was conducted at nine sites with over 300 enrolled subjects. MELT-300 is a sublingual, needle- and opioid-free formulation for procedural sedation during cataract surgery. […] MELT-300 utilizes fast-dissolving delivery technology (Zydis®, Catalent Inc.) to rapidly dissolve the tablet for absorption across the sublingual mucosa.
(§1) The Phase 2 study was factorial-designed, randomized, double-blind, placebo-controlled, and included parallel-cohorts. […] Primary efficacy endpoints included appropriate sedation during the cataract surgery and management of intraoperative pain during the surgery.
Achievement of procedural sedation was evaluated for each subject (see TABLE 19). Success for procedural sedation for this Phase 2 study was defined as achieving target sedation level (Ramsay Sedation Scale (RSS) scale level 2 or 3) at the start of surgery without the need for rescue sedation medication, and no need for intraoperative rescue sedation medication to maintain target sedation level.

[2] = test system: subjects undergoing cataract extraction with lens replacement (CELR); assay: Phase 2 mean intraoperative analgesia by the numeric pain rating scale; type: in vivo, human
Description: An average of the available timepoints was also calculated.

[3] = test system: subjects undergoing cataract extraction with lens replacement (CELR); assay: Phase 2 subject-rated worst pain during surgery by the numeric pain rating scale; type: in vivo, human; settings: carry forward
[4] = test system: subjects undergoing cataract extraction with lens replacement (CELR); assay: Phase 2 subjects achieving analgesia response (NPRS <4); type: in vivo, human; settings: Visit 2 (Day 1), observed
Description: (§2) The number of subjects achieving analgesia response (observed) in the full analysis set was determined. Success in analgesia response was defined as NPRS <4 at the available at the available four intraoperative timepoints and a failure otherwise (e.g., any interoperative pain rescue was assumed to be a failure. Results are provided in TABLE 24. The number of subjects completing the surgery is provided in TABLE 25, and the number of subjects completing the surgery without interruption is provided in TABLE 26. For this measure, subjects completing the surgery without interruption (other than rescue medication) due to pain or anxiety were considered successes. The number of subjects requiring rescue sedative medication and those requiring analgesic medication are provided in TABLES 27 and 28, respectively. For all TABLES 24-28, p-Values between pairs of treatments were calculated and are provided.

[5] = test system: subjects undergoing cataract extraction with lens replacement (CELR); assay: Phase 2 subjects completing the surgery; type: in vivo, human; settings: Visit 2 (Day 1); Full Analysis Set
Description: as §2

[6] = test system: subjects undergoing cataract extraction with lens replacement (CELR); assay: Phase 2 subjects completing the surgery without interruption; type: in vivo, human; settings: Visit 2 (Day 1); Full Analysis Set
Description: as §2

[7] = test system: subjects undergoing cataract extraction with lens replacement (CELR); assay: Phase 2 subjects requiring rescue sedative medication; type: in vivo, human; settings: Visit 2 (Day 1)
Description: as §2

[8] = test system: subjects undergoing cataract extraction with lens replacement (CELR); assay: Phase 2 subjects requiring rescue analgesic medication; type: in vivo, human; settings: Visit 2 (Day 1); Full Analysis Set
Description: as §2

[9] = test system: subjects undergoing cataract extraction with lens replacement (CELR); assay: Phase 2 subjects wanting study drug again for a second surgery (11-point Likert scale); type: in vivo, human
From the text: Post-operation, subjects were asked whether they would want the study drug again for a second surgery using an 11-point Likert scale of 0 (not likely at all) to 10 (extremely likely).

[10] = test system: subjects undergoing cataract extraction with lens replacement (CELR); assay: Phase 2 subjects receiving opioid concomitant medication postoperatively; type: in vivo, human
[11] = test system: subjects undergoing cataract extraction with lens replacement (CELR); assay: Phase 2 treatment-emergent ocular adverse events (study eye, non-study eye, either eye); settings: for Eye disorders, % / General disorders and administration site conditions, % / Infections and infestations, % / Injury, poisoning and procedural complications, % / Investigations, %: system organ class
Description: as §1
The study eye (TABLE 31) non-study eye (TABLE 32), or either eye (TABLE 33) was assessed. TEAES were defined as events that started on or after the date of the study drug administration through the end of Visit 4 or early withdrawal. Subjects with one or more adverse event within a level of Medical Dictionary for Regulatory Activities (MedDRA) were counted only once in that level.

[12] = Average of available timepoints, adjusted for site table, carry forward
[13] = Average of available timepoints, carry forward
[14] = Average of available timepoints, observed
[15] = Corneal incision, adjusted for site table, carry forward
[16] = Corneal incision, carry forward
[17] = Insertion of the phacoemulsion probe, adjusted for site table, carry forward
[18] = Insertion of the phacoemulsion probe, carry forward
[19] = Insertion of the phacoemulsion probe, observed
[20] = Insertion of the speculum, adjusted for site table, carry forward
[21] = Insertion of the speculum, carry forward
[22] = Insertion of the speculum, observed
[23] = Insertion of the synthetic replacement lens, adjusted for site table, carry forward
[24] = Insertion of the synthetic replacement lens, carry forward
[25] = Insertion of the synthetic replacement lens, observed
[26] = adjusted for site, carry forward
[27] = carry forward, repeated measures model
[28] = observed, repeated measures model
[29] = 11-point Likert scale 0 (not likely at all) to 10 (extremely likely)

## Cc1ncc2n1-c1ccc(Cl)cc1C(c1ccccc1F)=NC2 [Midazolam 3 mg]
[1]
  Subjects achieving procedural sedation: No, %: 35.8%
[1]; RSS 2 or 3 without rescue sedation
  Subjects achieving procedural sedation: Yes, %: 64.2%
[2]; Average of available timepoints, adjusted for site (study center covariate), carry forward
  Intraoperative NPRS, LS Mean: 2.12
[2]; [12]
  Intraoperative NPRS, mean: 2.37
  Intraoperative NPRS, median: 2.00
[2]; [13]
  Intraoperative NPRS, mean: 2.37
  Intraoperative NPRS, median: 2.00
[2]; Average of available timepoints, carry forward, repeated measures model
  Intraoperative NPRS, LS Mean: 2.37
[2]; [14]
  Intraoperative NPRS, mean: 2.18
  Intraoperative NPRS, median: 2.00
[2]; Average of available timepoints, observed, repeated measures model
  Intraoperative NPRS, LS Mean: 2.46
[2]; [15]
  Intraoperative NPRS, mean: 1.8
  Intraoperative NPRS, median: 1.0
[2]; [16]
  Intraoperative NPRS, mean: 1.8
  Intraoperative NPRS, median: 1.0
[2]; Corneal incision, observed
  Intraoperative NPRS, mean: 1.8
  Intraoperative NPRS, median: 1.0
[2]; [17]
  Intraoperative NPRS, mean: 2.9
  Intraoperative NPRS, median: 3.0
[2]; [18]
  Intraoperative NPRS, mean: 2.9
  Intraoperative NPRS, median: 3.0
[2]; [19]
  Intraoperative NPRS, mean: 2.5
  Intraoperative NPRS, median: 2.0
[2]; [20]
  Intraoperative NPRS, mean: 1.1
  Intraoperative NPRS, median: 0.0
[2]; [21]
  Intraoperative NPRS, mean: 1.1
  Intraoperative NPRS, median: 0.0
[2]; [22]
  Intraoperative NPRS, mean: 1.1
  Intraoperative NPRS, median: 0.0
[2]; [23]
  Intraoperative NPRS, mean: 3.6
  Intraoperative NPRS, median: 4.0
[2]; [24]
  Intraoperative NPRS, mean: 3.6
  Intraoperative NPRS, median: 4.0
[2]; [25]
  Intraoperative NPRS, mean: 2.9
  Intraoperative NPRS, median: 3.0
[2]; [26]
  Intraoperative NPRS, LS Mean Difference versus ketamine: 0.22
  Intraoperative NPRS, LS Mean Difference versus placebo: −0.08
[2]; [27]
  Intraoperative NPRS, LS Mean Difference versus ketamine: 0.20
  Intraoperative NPRS, LS Mean Difference versus placebo: −0.12
[2]; [28]
  Intraoperative NPRS, LS Mean Difference versus ketamine: 0.24
  Intraoperative NPRS, LS Mean Difference versus placebo: −0.01
[3]
  Worst Pain During Surgery, Mean Difference versus ketamine: 0.38
  Worst Pain During Surgery, Mean Difference versus placebo: 0.05
[3]; Full Analysis Set
  Worst Pain During Surgery (NPRS), mean: 4.0
  Worst Pain During Surgery (NPRS), median: 4.0
[4]; NPRS <4 at four intraoperative timepoints
  Subjects achieving analgesia response: Yes, %: 40.7%
[4]
  Subjects achieving analgesia response: No, %: 59.3%
[5]
  Subjects completing the surgery: No, %: 0 (0) %
  Subjects completing the surgery: Yes, %: 100.0%
[6]
  Subjects completing the surgery without interruption: No, %: (0) %
  Subjects completing the surgery without interruption: Yes, %: (100.0) %
[7]; Full Analysis Set
  Subjects requiring rescue sedative medication: No, %: (65.4) %
  Subjects requiring rescue sedative medication: Yes, %: (34.6) %
[7]; Intraoperatively
  Subjects requiring rescue sedative medication: Intraoperatively, %: (8.6) %
[7]; Pre-operatively
  Subjects requiring rescue sedative medication: Pre-operatively, %: (25.9) %
[8]
  Subjects requiring rescue analgesic medication: No, %: (56.8) %
  Subjects requiring rescue analgesic medication: Yes, %: (43.2) %
[9]; [29]
  Want Study Drug Again, mean: 8.4
  Want Study Drug Again, median: 10.0
[9]; unpaired t-test
  Want Study Drug Again, Mean Difference versus ketamine: 0.80
  Want Study Drug Again, Mean Difference versus placebo: 0.75
[10]; Day 2
  Received Postoperative Opioid on Day 2: No, %: (100.0) %
  Received Postoperative Opioid on Day 2: Yes, %: (0.0) %
[10]; Day 2-8
  Received Postoperative Opioid on Day 2-8: No, %: (100.0) %
  Received Postoperative Opioid on Day 2-8: Yes, %: (0.0) %
[11]; Either Eye
  Cataract operation complication, %: (0) %
  Conjunctivitis bacterial, %: (0) %
  Corneal abrasion, %: (0) %
  Corneal oedema, %: (0) %
  Endophthalmitis, %: (0) %
  Eye pain, %: (3.4) %
  Foreign body sensation in eyes, %: (0) %
  Intraocular pressure increased, %: (2.3) %
  Ocular hypertension, %: (1.1) %
  Pain, %: (0) %
  Paracentesis eye, %: (0) %
  Procedural pain, %: (1.1) %
  Subjects with Any Treatment-Emergent Ocular AEs, %: (9.2) %
  Vision blurred, %: (1.1) %
  Eye disorders, %: (5.7) %
  General disorders and administration site conditions, %: (0) %
  Infections and infestations, %: (0) %
  Injury, poisoning and procedural complications, %: (1.1) %
  Investigations, %: (2.3) %
[11]; Non-Study Eye
  Conjunctivitis bacterial, %: (0) %
  Eye pain, %: (0) %
  Subjects with Any Treatment-Emergent Ocular AEs, %: (1.1) %
  Vision blurred, %: (1.1) %
  Eye disorders, %: (1.1) %
  Infections and infestations, %: (0) %
[11]; Study Eye
  Cataract operation complication, %: (0) %
  Corneal abrasion, %: (0) %
  Corneal oedema, %: (0) %
  Endophthalmitis, %: (0) %
  Eye pain, %: (3.4) %
  Foreign body sensation in eyes, %: (0) %
  Intraocular pressure increased, %: (2.3) %
  Ocular hypertension, %: (1.1) %
  Pain, %: (0) %
  Procedural pain, %: (1.1) %
  Subjects with Any Treatment-Emergent Ocular AEs, %: (8.0) %
  Eye disorders, %: (4.6) %
  General disorders and administration site conditions, %: (0) %
  Infections and infestations, %: (0) %
  Injury, poisoning and procedural complications, %: (1.1) %
  Investigations, %: (2.3) %
[11]; printed in the Non-Study Eye table
  Paracentesis eye, %: (0) %
